Patent publication US7507718B2, “Polymyxin B analogs for LPS detoxification” (Sanofi Pasteur, priority 2005, dated 2009)
“And” between values parts separate entries of the source, which are not always exact repeats. Identical values can stand only once. Bridge positions count the residues as written; N and C are the ends. Peptide text beside a SMILES is read from it. I, II: the chains in the order shown.

Key:
IL6 release = assay: In vivo cytokine release in sera of CD1 mice (ELISA): IL6; parameters: species or system mouse
Experimental: (§1) In order to evaluate to which extent the LPS-peptide complex can attenuate LPS-induced toxic effects, the effect of the LPS-peptide complex on the release of pro-inflammatory cytokines is monitored (assessed) in in vitro and in vivo assays. • In vivo: cytokine (IL6 and TNFα) releases in the sera of mice immunized either with LPS or LPS-peptide complex are compared by ELISA. Blood samples are recovered 90 min after SC immunization, which is the optimal time for the release of those cytokines. C3H/HeOuJ, TLR4-/-, C3H/HeN and CD1 mouse strains are tested. The two first are sensitive neither to LPS nor LPS-peptide complex. The third and fourth are both found LPS-sensitive. CD1 mice are found more LPS-peptide complex-sensitive than the others and therefore selected for further experiments retaining the most severe conditions. • In vitro:cytokine (IL6, IL8 and TNFα) releases from human whole blood cell cultures stimulated for 24h at 37° C., with different concentrations of LPS or LPS-peptide complex are compared. 5.4.1. In Vivo Assay
(§2) CD1 mice are administered subcutaneously (SC) (i) either 10 μg of LPS or (ii) 10 μg of LPS-peptide complex. They are bled 90 minutes after injection. IL6 and TNFα releases are measured in the sera by ELISA. […]
(§3) The reaction is stopped by adding 100 μl of 1 M H3PO4 per well. Plates are read at 450 nm.

[1] = test system: N. meningitidis strain used for LPS production; assay: Serum bactericidal activity (SBA) of sera of immunized rabbits; assay type: in vivo; conditions: individual rabbits
Experimental: Immunization of three adult New-Zealand rabbits is performed with 100 μg of LPS-peptide complex by intramuscular (IM) and subcutaneous (SC) routes (2×0.5 mL and 5×0.2 mL respectively) in the presence of adjuvant. They receive three injections at 3-week interval; the first one with complete Freund adjuvant (FA), the second and third ones with incomplete Freund adjuvant. They are bled two weeks after the last injection. A control group is immunized with the peptide with adjuvant (71 μg, equivalent to the amount of the peptide in 100 μg of LPS-peptide complex) using the same protocol.
The bactericidal activity of the serum (SBA) samples is evaluated against the N. meningitidis strain used for LPS production as described in Example 5 in the presence of baby rabbit serum as exogenous source of complement.
Sera are heat-inactivated during 30 min at 56° C. In the wells of a 96-well microplate, heat-inactivated sera are then twofold serially diluted (10 times) in Dulbecco's phosphate buffered saline containing Ca^++ and Mg^++ (volume per well: 50 μl).
Twenty five μl of a log phase culture of N. meningitidis grown in Mueller-Hinton broth (4.10^3 CFU/mL) and 25 μl of baby rabbit serum are added to each well. The plate is incubated one hour at 37° C., under shaking.
Fifty μl of the mixture from each well are plated onto Mueller-Hinton agar. Petri dishes are incubated overnight at +37° C. in a 10% CO2 atmosphere.
In each experiment, controls include (i) bacteria and the complement source without antibodies (complement control), (ii) bacteria and heat-inactivated complement, and (iii) bacteria and heat-inactivated complement, in the presence of antibodies.
Bactericidal titre is reported as the highest reciprocal serum dilution at which ≧50% killing of bacteria is observed as compared to the complement control.

TNFα release = assay: In vivo cytokine release in sera of CD1 mice (ELISA): TNFα; parameters: species or system mouse
Experimental: as §1, §2, §3

[2] = 10 μg SC, sera 90 minutes after injection

For `CC(C)C[C@@H]1NC(=O)[C@H](CC(C)C)NC(=O)[C@H](CC(C)C)NC(=O)[C@H](Cc2ccccc2)NC(=O)[C@H](CCCCN)NC(=O)[C@@H](NC(=O)[C@H](CCCCN)NC(=O)[C@@H](NC(=O)[C@@H](N)CCCCN)[C@@H](C)O)CSSC[C@@H](C(=O)O)NC(=O)[C@H](CC(C)C)NC(=O)[C@H](CC(C)C)NC(=O)[C@H](CC(C)C)NC(=O)[C@H](Cc2ccccc2)NC(=O)[C@H](CCCCN)NC(=O)[C@@H](NC(=O)[C@H](CCCCN)NC(=O)[C@@H](NC(=O)[C@@H](N)CCCCN)[C@@H](C)O)CSSC[C@@H](C(=O)O)NC1=O` [Peptide, NH2-Lys-Thr-Lys-Cys1-Lys-Phe-Leu-Leu-Leu-Cys2-COOH] (I: H-KTKCKFLLLC-OH / II: H-KTKCKFLLLC-OH; disulfide I:4-II:10, I:10-II:4), the “IL6 release, Mean (pg/mL) n = 6 (log)” value (IL6 release; [2]) was <1 pg/mL (log), the “Induction of IL6 (in words)” value (IL6 release; peptide alone) was “does not induce” and the “SBA titre, Pre-immunized sera” value ([1]; baseline before immunization, baby rabbit complement) was 4 and 16. The “SBA titre, Post-dose 3 immunized sera” value ([1]; 100 μg complex or 71 μg peptide IM+SC with Freund adjuvant, three injections) was 16, the “SBA titre, Post-dose 3 immunized sera adsorbed on LPS” value ([1]; sera adsorbed on LPS) was 4 and 8 and the “TNFα release, Mean (pg/mL) n = 6 (log)” value (TNFα release; [2]) was <1 pg/mL (log). For the same compound, the “Induction of TNFα (in words)” value (TNFα release; peptide alone) was “does not induce”.
